From doi:10.1101/2025.11.28.691146v1 (biorxiv, 2025)

Legend:
[1] = target: T1, McrA (Streptomyces lavendulae, UniProt P43485); assay: thermal shift, label-free intrinsic fluorescence; format: binding; conditions: read-out: dTm at 1 mM
T1 sequence (P43485 1-448): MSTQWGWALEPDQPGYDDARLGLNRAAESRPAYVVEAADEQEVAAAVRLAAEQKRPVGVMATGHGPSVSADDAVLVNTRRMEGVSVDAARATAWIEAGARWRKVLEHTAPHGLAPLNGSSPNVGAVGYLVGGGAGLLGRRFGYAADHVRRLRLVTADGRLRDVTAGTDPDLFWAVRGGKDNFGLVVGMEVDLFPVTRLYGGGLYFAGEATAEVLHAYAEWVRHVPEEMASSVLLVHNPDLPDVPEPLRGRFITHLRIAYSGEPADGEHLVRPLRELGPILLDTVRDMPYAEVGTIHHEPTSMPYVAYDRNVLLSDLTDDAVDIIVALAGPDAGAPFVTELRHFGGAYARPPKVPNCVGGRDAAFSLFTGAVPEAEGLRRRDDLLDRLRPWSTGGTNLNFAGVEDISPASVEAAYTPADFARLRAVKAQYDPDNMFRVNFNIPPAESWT

[2] = target: T1, McrA; assay: microscale thermophoresis; format: binding

ΔTm at 1000 µM [1]: 0.5 °C
Kd [2]: 15.9 ± 4.5 µM
SMILES: CO[C@@]12[C@H](COC(N)=O)C3=C(C(=O)C(C)=C(N)C3=O)N1C[C@@H]1N[C@@H]12 [mitomycin C]
